Active and inactive are the calls of the source. The calls are words filed in the database; no cut-off is given here.
Assays:
MCF7 = test: Cytotoxicity activity against human MCF7 assessed as inhibition of cell growth measured after 72 hrs by MTT assay; format: functional, cell-based; conditions: MCF7, 72 h
MDA-MB-231 [1] = test: Cytotoxicity against human MDA-MB-231 cells assessed as cell growth inhibition measured after 72 hrs by MTT assay; format: functional, cell-based; conditions: MDA-MB-231, 72 h
PC-3 = test: Cytotoxicity against human PC-3 cells assessed as cell growth inhibition measured after 72 hrs by MTT assay; format: functional, cell-based; conditions: PC-3, 72 h
HeLa = test: Cytotoxicity against human Hela cells assessed as cell growth inhibition measured after 72 hrs by MTT assay; format: functional, cell-based
HT-29 [2] = test: Cytotoxicity against human HT-29 cells assessed as cell growth inhibition measured after 72 hrs by MTT assay; format: functional, cell-based; conditions: HT-29, 72 h
A549 [3] = test: Cytotoxicity against human A549 cells assessed as cell growth inhibition measured after 72 hrs by MTT assay; format: functional, cell-based; conditions: A549, 72 h
MRC5 = test: Cytotoxicity against human MRC5 cells assessed as cell growth inhibition measured after 72 hrs by MTT assay; format: cell-based; conditions: MRC5, 72 h
MDA-MB-231 [4] = test: Induction of apoptosis in human MDA-MB-231 cells assessed as late apoptotic cells by measuring red colour signal measured after 72 hrs by fluorescent double-staining method; format: functional, cell-based
HT-29 [5] = test: Induction of apoptosis in human HT-29 cells assessed as late apoptotic cells by measuring red colour signal measured after 72 hrs by fluorescent double-staining method; format: functional, cell-based
A549 [6] = test: Induction of apoptosis in human A549 cells assessed as late apoptotic cells by measuring red colour signal measured after 72 hrs by fluorescent double-staining method; format: functional, cell-based
[7] = target: T1, Estrogen receptor (Homo sapiens) (UniProt P03372); test: Binding affinity to EYFP-tagged human ERalpha-LBD expressed in Saccharomyces cerevisiae FY250 strain assessed as fluorescence intensity at 10 uM incubated for 14 to 16 hrs by fluorescence spectroscopy based fluorescence microscopy relative to control; conditions: time 14-16 hrs
T1 sequence (whole entry): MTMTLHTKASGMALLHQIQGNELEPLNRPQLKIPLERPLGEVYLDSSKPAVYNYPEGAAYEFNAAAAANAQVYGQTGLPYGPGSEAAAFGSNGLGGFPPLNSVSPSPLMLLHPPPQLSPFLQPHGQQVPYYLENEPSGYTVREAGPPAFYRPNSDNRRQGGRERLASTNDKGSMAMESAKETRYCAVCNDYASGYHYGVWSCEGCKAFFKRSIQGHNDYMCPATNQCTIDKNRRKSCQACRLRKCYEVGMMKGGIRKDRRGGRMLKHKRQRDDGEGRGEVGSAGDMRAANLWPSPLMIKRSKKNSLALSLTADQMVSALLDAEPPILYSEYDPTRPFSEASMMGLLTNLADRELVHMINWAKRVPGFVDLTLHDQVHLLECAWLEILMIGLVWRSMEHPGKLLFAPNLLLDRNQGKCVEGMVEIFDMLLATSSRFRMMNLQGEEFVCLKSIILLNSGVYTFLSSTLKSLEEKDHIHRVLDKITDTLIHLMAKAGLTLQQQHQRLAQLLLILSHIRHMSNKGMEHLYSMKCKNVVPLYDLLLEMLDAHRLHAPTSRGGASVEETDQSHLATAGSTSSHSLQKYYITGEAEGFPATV

[8] = target: Estrogen receptor beta (Homo sapiens) (UniProt Q92731); test: Binding affinity to EYFP-tagged human ERbeta-LBD expressed in Saccharomyces cerevisiae FY250 strain assessed as fluorescence intensity at 10 uM incubated for 14 to 16 hrs by fluorescence spectroscopy based fluorescence microscopy relative to control; conditions: time 14-16 hrs
Estrogen receptor beta (Homo sapiens), sequence (Q92731 whole entry, the tested form may be a part): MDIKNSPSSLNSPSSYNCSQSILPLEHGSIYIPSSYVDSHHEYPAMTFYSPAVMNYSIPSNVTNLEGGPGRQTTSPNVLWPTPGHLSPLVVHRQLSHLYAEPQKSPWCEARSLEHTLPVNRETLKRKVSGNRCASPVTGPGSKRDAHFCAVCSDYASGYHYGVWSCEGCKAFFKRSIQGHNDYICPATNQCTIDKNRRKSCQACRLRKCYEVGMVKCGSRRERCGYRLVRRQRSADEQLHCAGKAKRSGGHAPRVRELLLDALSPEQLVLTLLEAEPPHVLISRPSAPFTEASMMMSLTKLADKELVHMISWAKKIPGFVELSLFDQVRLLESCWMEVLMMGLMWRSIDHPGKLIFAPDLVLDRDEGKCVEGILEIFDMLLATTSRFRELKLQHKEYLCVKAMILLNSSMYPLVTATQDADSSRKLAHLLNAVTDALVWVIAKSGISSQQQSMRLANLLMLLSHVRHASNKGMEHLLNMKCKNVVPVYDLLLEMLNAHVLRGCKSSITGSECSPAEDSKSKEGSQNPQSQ

Row | Compound | IC50 (MCF7) [µM] | IC50 (MDA-MB-231 [1]) [µM] | IC50 (PC-3) [µM] | IC50 (HeLa) [µM] | IC50 (HT-29 [2]) [µM] | IC50 (A549 [3]) [µM] | IC50 (MRC5) [µM] | Activity (MDA-MB-231 [4]) | Activity (HT-29 [5]) | Activity (A549 [6]) | Activity [7] | Activity [8]
1 | CC(=O)O[C@H]1CC[C@]2(C)[C@H]3CC[C@]4(C)COC(=O)C[C@H]4[C@@H]3C[C@@H](Cl)[C@@]2(Cl)C1 | > 100 | 23.7 | > 100 | 25.9 | 10.8 | 15.5 | > 100 | Active | Active | Active | – | –
2 | CO[C@]12C[C@@H](O)CC[C@]1(C)[C@H]1CC[C@]3(C)COC(=O)C[C@H]3[C@@H]1C[C@H]2O | > 100 | 4.4 | 24.8 | 7.06 | > 100 | > 100 | > 100 | Active | – | – | – | –
3 | CC(=O)O[C@H]1CC[C@]2(C)[C@H]3CC[C@]4(C)COC(=O)C[C@H]4[C@@H]3C[C@@H](O)[C@@]2(Br)C1 | 86.6 | 26.5 | > 100 | 13.6 | > 100 | 26.1 | > 100 | Active | – | – | – | –
4 | CC(=O)O[C@H]1CC[C@]2(C)[C@H]3CC[C@]4(C)COC(=O)C[C@H]4[C@@H]3C[C@H](Br)[C@]2(O)C1 | 12.9 | > 100 | > 100 | > 100 | > 100 | > 100 | > 100 | – | – | – | – | –
5 | C[C@]12CC[C@H]3[C@@H](CC(=O)[C@@]4(O)CC(=O)CC[C@]34C)[C@@H]1CC(=O)OC2 | > 100 | 4.81 | > 100 | 40.1 | 42.2 | > 100 | > 100 | Active | – | – | Active | –
6 | CC(=O)O[C@H]1CC[C@]2(C)[C@H]3CC[C@]4(C)COC(=O)C[C@H]4[C@@H]3C[C@@H](O)[C@@]2(O)C1 | > 100 | > 100 | > 100 | > 100 | 86.6 | > 100 | > 100 | – | – | – | – | Active
7 | CC(=O)O[C@H]1CC[C@]2(C)[C@H]3CC[C@]4(C)COC(=O)C[C@H]4[C@@H]3C[C@@H](Br)[C@@]2(Br)C1 | 34.9 | 13.3 | > 100 | 9.46 | 16.2 | 36.9 | > 100 | Active | – | Active | Active | –
8 | C[C@]12CCC(=O)C(O)=C1CC[C@@H]1[C@@H]2CC[C@]2(C)C(=O)CC[C@@H]12 [FORMESTANE] | > 100 | – | 26.4 | 3.36 | > 100 | 38.6 | 0.1 | – | – | – | – | –
9 | C[C@]12CC[C@H]3[C@@H](CC(=O)[C@@]4(O)C[C@@H](O)CC[C@]34C)[C@@H]1CC(=O)OC2 | > 100 | 6.16 | > 100 | 33.6 | > 100 | > 100 | > 100 | Active | – | – | – | –
10 | CO[C@@H]1C[C@H]2[C@@H]3CC(=O)OC[C@@]3(C)CC[C@@H]2[C@@]2(C)CC[C@H](O)C[C@]12O | 73.6 | 3.38 | 10.8 | 27 | > 100 | > 100 | > 100 | Active | – | – | – | –
11 | CC(=O)O[C@H]1CC[C@]2(C)[C@H]3CC[C@]4(C)COC(=O)C[C@H]4[C@@H]3C[C@@H]3O[C@@]32C1 | > 100 | 6.16 | > 100 | 99.2 | > 100 | > 100 | > 100 | Active | – | – | – | –
12 | CC(=O)O[C@H]1CC[C@]2(C)[C@H]3CC[C@]4(C)COC(=O)C[C@H]4[C@@H]3C[C@@H](O)[C@@]2(F)C1 | 42.9 | 9.1 | > 100 | > 100 | 21.2 | > 100 | > 100 | Active | – | – | – | Active
13 | CC(=O)O[C@H]1CC[C@]2(C)[C@H]3CC[C@]4(C)COC(=O)C[C@H]4[C@@H]3C[C@H]3O[C@]32C1 | 100 | 33.9 | > 100 | 16.9 | 14 | > 100 | > 100 | Active | – | – | Active | –
14 | CC(=O)O[C@H]1CC[C@]2(C)[C@H]3CC[C@]4(C)COC(=O)C[C@H]4[C@@H]3C[C@@H](OC(C)=O)[C@@]2(O)C1 | 12.7 | 31 | 6.6 | 8.66 | > 100 | > 100 | > 100 | Active | – | – | – | –
15 | COc1cccc2c1C(=O)c1c(O)c3c(c(O)c1C2=O)C[C@@](O)(C(=O)CO)C[C@@H]3O[C@H]1C[C@H](N)[C@H](O)[C@H](C)O1 [DOXORUBICIN] | – | – | 84.2 | – | – | > 100 | 0.24 | – | – | – | – | –
16 | CC(=O)O[C@H]1CC[C@]2(C)[C@H]3CC[C@]4(C)COC(=O)C[C@H]4[C@@H]3CC(=O)[C@@]2(O)C1 | 81.8 | 23.7 | > 100 | > 100 | > 100 | > 100 | > 100 | Active | – | – | – | –
17 | C[C@]12CC[C@H]3[C@@H](C[C@@H](O)[C@@]4(O)C[C@@H](O)CC[C@]34C)[C@@H]1CC(=O)OC2 | 8.62 | 13.8 | > 100 | 93.6 | 9.34 | 0.99 | > 100 | Active | Active | Active | – | –
18 | CC(=O)O[C@H]1CC[C@]2(C)[C@H]3CC[C@]4(C)COC(=O)C[C@H]4[C@@H]3C[C@@H](O)[C@@]2(Cl)C1 | > 100 | > 100 | > 100 | 36.9 | 72.3 | > 100 | > 100 | – | – | – | – | –

— ChEMBL document CHEMBL4680315, “Synthesis and anticancer potential of novel 5,6-oxygenated and/or halogenated steroidal d-homo lactones” (Bioorg Med Chem, 2021)
